{
  "source": "patent US20070287752A1",
  "about": "“Ophthalmic Compositions Comprising A Branched, Glycerol Compound” (priority 2006, published 2007)",
  "assay_in_all_cases": "Preservative/disinfectant system efficacy testing (log reduction)",
  "format_in_all_cases": "cell-based",
  "key": {"[1]": {"test_system": "Serratia marcescens (ATCC 13880)", "experimental": "(§1) The ophthalmic compositions are evaluated in accordance with specific procedures outlined by the US Food & Drug Administration and the International Organization for Standardization for the testing of microbiocidal efficacy."}, "[2]": {"test_system": "Staphylococcus aureus (ATCC 6538)", "experimental": "as §1"}, "[3]": {"test_system": "Pseudomonas aeruginosa (ATCC 9027)", "experimental": "as §1"}, "[4]": {"test_system": "Candida albicans (ATCC 10231)", "experimental": "as §1"}, "[5]": {"test_system": "Fusarium solani (ATCC 36031)", "experimental": "as §1"}, "[6]": {"conditions": "1 hr, Table 8A multi-purpose lens care formulation, disinfectant concentrations as in label"}, "[7]": {"conditions": "1 hr, phosphate buffered saline, concentrations as in label (Table 7)"}, "[8]": {"conditions": "4 hr, Table 8A multi-purpose lens care formulation, disinfectant concentrations as in label"}, "[9]": {"conditions": "4 hr, phosphate buffered saline, concentrations as in label (Table 7)"}, "[10]": {"conditions": "1 hr, Table 5A multi-purpose lens care solution, 10% organic soil, disinfectant concentrations as in label"}, "[11]": {"conditions": "1 hr, phosphate buffered saline, 10% organic soil, concentrations as in label (Table 4)"}, "[12]": {"conditions": "4 hr, Table 5A multi-purpose lens care solution, 10% organic soil, disinfectant concentrations as in label"}, "[13]": {"conditions": "4 hr, phosphate buffered saline, 10% organic soil, concentrations as in label (Table 4)"}},
  "data": [
    {"smiles": "CCCCC(CC)CNCC(O)CO", "note": "(stereo not drawn) [EHAPD, 3-[(2-ethylhexyl)amino]-1,2-propanediol]", "values": [
      {"measurement": "log reduction S. marcescens", "setting": "[1]; [6]", "result": 2.7},
      {"measurement": "log reduction S. marcescens", "setting": "[1]; [7]", "result": 3.3},
      {"measurement": "log reduction S. marcescens", "setting": "[1]; [8]", "result": 3.2},
      {"measurement": "log reduction S. marcescens", "setting": "[1]; [9]", "result": 3.8},
      {"measurement": "log reduction S. aureus", "setting": "[2]; [6]", "result": 1.2},
      {"measurement": "log reduction S. aureus", "setting": "[2]; [7]", "result": 1.4},
      {"measurement": "log reduction S. aureus", "setting": "[2]; [8]", "result": 1.2},
      {"measurement": "log reduction S. aureus", "setting": "[2]; [9]", "result": 1.4},
      {"measurement": "log reduction P. aeruginosa", "setting": "[3]; [6]", "result": 1.2},
      {"measurement": "log reduction P. aeruginosa", "setting": "[3]; [7]", "result": 1.4},
      {"measurement": "log reduction P. aeruginosa", "setting": "[3]; [8]", "result": 1.3},
      {"measurement": "log reduction P. aeruginosa", "setting": "[3]; [9]", "result": 1.4},
      {"measurement": "log reduction C. albicans", "setting": "[4]; [6]", "result": 2.4},
      {"measurement": "log reduction C. albicans", "setting": "[4]; [7]", "result": ">5.0"},
      {"measurement": "log reduction C. albicans", "setting": "[4]; [8]", "result": 2.6},
      {"measurement": "log reduction C. albicans", "setting": "[4]; [9]", "result": ">5.0"},
      {"measurement": "log reduction F. solani", "setting": "[5]; [6]", "result": 2.4},
      {"measurement": "log reduction F. solani", "setting": "[5]; [7]", "result": 2.3},
      {"measurement": "log reduction F. solani", "setting": "[5]; [8]", "result": 4.8},
      {"measurement": "log reduction F. solani", "setting": "[5]; [9]", "result": 5.2}
    ]},
    {"smiles": "CCCCC(CC)CNC(=N)NC(=N)NCCCCCCNC(=N)NC(=N)NCC(CC)CCCC", "note": "(stereo not drawn) [alexidine, reference compound]", "values": [
      {"measurement": "log reduction S. marcescens", "setting": "[1]; [10]", "result": 4.1},
      {"measurement": "log reduction S. marcescens", "setting": "[1]; [6]", "result": 4.1},
      {"measurement": "log reduction S. marcescens", "setting": "[1]; [11]", "result": 2.0},
      {"measurement": "log reduction S. marcescens", "setting": "[1]; [7]", "result": 2.0},
      {"measurement": "log reduction S. marcescens", "setting": "[1]; [12]", "result": ">5.2"},
      {"measurement": "log reduction S. marcescens", "setting": "[1]; [8]", "result": ">5.2"},
      {"measurement": "log reduction S. marcescens", "setting": "[1]; [13]", "result": 3.5},
      {"measurement": "log reduction S. marcescens", "setting": "[1]; [9]", "result": 3.5},
      {"measurement": "log reduction S. aureus", "setting": "[2]; [10]", "result": 3.3},
      {"measurement": "log reduction S. aureus", "setting": "[2]; [6]", "result": 3.3},
      {"measurement": "log reduction S. aureus", "setting": "[2]; [11]", "result": 1.4},
      {"measurement": "log reduction S. aureus", "setting": "[2]; [7]", "result": 1.4},
      {"measurement": "log reduction S. aureus", "setting": "[2]; [12]", "result": 3.8},
      {"measurement": "log reduction S. aureus", "setting": "[2]; [8]", "result": 3.8},
      {"measurement": "log reduction S. aureus", "setting": "[2]; [13]", "result": 1.4},
      {"measurement": "log reduction S. aureus", "setting": "[2]; [9]", "result": 1.4},
      {"measurement": "log reduction P. aeruginosa", "setting": "[3]; [10]", "result": 3.5},
      {"measurement": "log reduction P. aeruginosa", "setting": "[3]; [6]", "result": 3.5},
      {"measurement": "log reduction P. aeruginosa", "setting": "[3]; [11]", "result": 1.6},
      {"measurement": "log reduction P. aeruginosa", "setting": "[3]; [7]", "result": 1.6},
      {"measurement": "log reduction P. aeruginosa", "setting": "[3]; [12]", "result": 3.9},
      {"measurement": "log reduction P. aeruginosa", "setting": "[3]; [8]", "result": 3.9},
      {"measurement": "log reduction P. aeruginosa", "setting": "[3]; [13]", "result": 2.3},
      {"measurement": "log reduction P. aeruginosa", "setting": "[3]; [9]", "result": 2.3},
      {"measurement": "log reduction C. albicans", "setting": "[4]; [10]", "result": 2.0},
      {"measurement": "log reduction C. albicans", "setting": "[4]; [6]", "result": 2.0},
      {"measurement": "log reduction C. albicans", "setting": "[4]; [11]", "result": 3.2},
      {"measurement": "log reduction C. albicans", "setting": "[4]; [7]", "result": 3.2},
      {"measurement": "log reduction C. albicans", "setting": "[4]; [12]", "result": 3.0},
      {"measurement": "log reduction C. albicans", "setting": "[4]; [8]", "result": 3.0},
      {"measurement": "log reduction C. albicans", "setting": "[4]; [13]", "result": 3.8},
      {"measurement": "log reduction C. albicans", "setting": "[4]; [9]", "result": 3.8},
      {"measurement": "log reduction F. solani", "setting": "[5]; [10]", "result": 3.1},
      {"measurement": "log reduction F. solani", "setting": "[5]; [6]", "result": 3.1},
      {"measurement": "log reduction F. solani", "setting": "[5]; [11]", "result": 2.3},
      {"measurement": "log reduction F. solani", "setting": "[5]; [7]", "result": 2.3},
      {"measurement": "log reduction F. solani", "setting": "[5]; [12]", "result": 4.2},
      {"measurement": "log reduction F. solani", "setting": "[5]; [8]", "result": 4.2},
      {"measurement": "log reduction F. solani", "setting": "[5]; [13]", "result": 2.3},
      {"measurement": "log reduction F. solani", "setting": "[5]; [9]", "result": 2.3}
    ]}
  ]
}
